The target in test [1] is T1, Neuropeptide Y receptor type 5 (Gallus gallus, UniProt Q8QFM2).
T1 sequence (Q8QFM2 whole entry): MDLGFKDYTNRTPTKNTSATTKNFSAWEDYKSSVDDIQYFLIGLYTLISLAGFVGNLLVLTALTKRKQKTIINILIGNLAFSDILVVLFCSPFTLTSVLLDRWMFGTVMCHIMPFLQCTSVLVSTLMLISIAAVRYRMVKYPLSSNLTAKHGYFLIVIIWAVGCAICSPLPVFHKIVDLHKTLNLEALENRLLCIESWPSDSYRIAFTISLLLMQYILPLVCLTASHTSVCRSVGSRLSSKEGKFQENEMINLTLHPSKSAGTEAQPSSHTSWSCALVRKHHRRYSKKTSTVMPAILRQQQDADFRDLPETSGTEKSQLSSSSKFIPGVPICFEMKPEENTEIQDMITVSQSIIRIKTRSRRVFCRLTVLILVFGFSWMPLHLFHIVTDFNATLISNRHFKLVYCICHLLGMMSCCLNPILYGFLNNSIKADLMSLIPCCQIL

For test [2], the target named is T2, Neuropeptide Y receptor type 1 (Gallus gallus, UniProt Q8QFM1).
T2 sequence (Q8QFM1 whole entry): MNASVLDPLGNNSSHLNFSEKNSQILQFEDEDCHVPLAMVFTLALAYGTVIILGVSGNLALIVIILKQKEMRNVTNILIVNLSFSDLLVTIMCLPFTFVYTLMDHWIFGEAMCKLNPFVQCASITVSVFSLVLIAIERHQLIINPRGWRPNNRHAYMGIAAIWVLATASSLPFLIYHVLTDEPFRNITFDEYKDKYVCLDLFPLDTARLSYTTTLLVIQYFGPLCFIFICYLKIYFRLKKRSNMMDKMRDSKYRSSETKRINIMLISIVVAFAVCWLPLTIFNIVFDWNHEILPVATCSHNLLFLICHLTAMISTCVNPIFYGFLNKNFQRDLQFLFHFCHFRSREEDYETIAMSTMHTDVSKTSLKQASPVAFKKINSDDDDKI

This passage reports Ki results from BindingDB's records for doi:10.1046/j.1471-4159.2002.00817.x (Uppsala University, 2002).

Usually Ki stands for the equilibrium dissociation constant of an inhibitor or competing ligand from its target. Read a low Ki as higher affinity.

Bounds are passed on as bounds.

As to `CC[C@H](C)[C@H](NC(=O)[C@H](Cc1ccc(O)cc1)NC(=O)[C@H](CCCNC(=N)N)NC(=O)[C@H](CCCNC(=N)N)NC(=O)[C@H](CC(C)C)NC(=O)[C@H](CC(=O)O)NC(=O)[C@H](C)NC(=O)[C@H](C)NC(=O)[C@H](Cc1ccc(O)cc1)NC(=O)[C@H](CCC(N)=O)NC(=O)[C@H](C)NC(=O)[C@H](CCSC)NC(=O)[C@H](CCC(N)=O)NC(=O)[C@H](CCC(=O)O)NC(=O)[C@@H]1CCCN1C(=O)[C@@H](NC(=O)[C@H](C)NC(=O)[C@H](CC(N)=O)NC(=O)[C@H](CC(=O)O)NC(=O)CNC(=O)[C@@H]1CCCN1C(=O)[C@H](Cc1ccc(O)cc1)NC(=O)[C@@H](NC(=O)[C@@H]1CCCN1C(=O)[C@H](CCC(=O)O)NC(=O)[C@H](CC(C)C)NC(=O)[C@@H]1CCCN1C(=O)[C@H](C)N)C(C)C)[C@@H](C)O)C(=O)N[C@@H](CC(N)=O)C(=O)N[C@@H](CCSC)C(=O)N[C@@H](CC(C)C)C(=O)N[C@H](C(=O)N[C@@H](CCCNC(=N)N)C(=O)N1CCC[C@H]1C(=O)N[C@@H](CCCNC(=N)N)C(=O)N[C@@H](Cc1ccc(O)cc1)C(N)=O)[C@@H](C)O` [CAS_59763-91-6], the inhibitory constant (Ki) in test [1] was 0.00048 µM; in test [2], more than 10 µM. The matching figures for `CN(C)CC1CCC(CN=C(N)c2ccc(CC(NC(=O)C(Cc3ccccc3)NS(=O)(=O)c3ccc4ccccc4c3)C(=O)N3CCCC3)cc2)CC1` (stereo unspecified) [CAS_5312150]: more than 10 µM and more than 10 µM.

In test [2], `Nc1nc(NC[C@H]2CC[C@H](CNS(=O)(=O)c3cccc4ccccc34)CC2)nc2ccccc12` [CGP 71683] registered a Ki of more than 10 µM. Regarding `O=c1oc2ccccc2c(O)c1C1CC(c2ccc(-c3ccccc3)cc2)Cc2ccccc21` (stereo unspecified) [NSC_41735], the Ki in test [1] was 0.00081 µM; in test [2] it was more than 10 µM. In the case of `N=C(N)NCCCC(NC(=O)C(c1ccccc1)c1ccccc1)C(=O)NCc1ccc(O)cc1` (stereo unspecified) [NSC_5311023], in test [1], the inhibitory constant (Ki) is more than 10 µM. With `NC(N)=NCCCC(NC(=O)CC1(CC(=O)N2CCN(C3c4ccccc4NC(=O)c4ccccc43)CC2)CCCC1)C(=O)NCCn1c(=O)n(-c2ccccc2)n(-c2ccccc2)c1=O` (stereo unspecified) [NSC_5311024], the Ki in test [2] is more than 10 µM. Take “H-GPSQPTYPGDDAPVEDLIRFYNDLQQYLNVVTRHRY-NH2 [NSC_0]”: the Ki in test [1] is 0.00468 µM; in test [2], more than 10 µM.
